Assay results published in patent publication US6387935B1, “Polycyclic dihydrothiazoles having substituted alkyl radicals in the two-position, process for their preparation, and their use as pharmaceuticals” (Aventis Pharma Deutschland GmbH, priority 1999, dated 2002).
Values joined by “and” are separate entries in the source; they are usually repeats but may differ in a detail not shown here. Identical values can stand only once.

Assays:
NMRI mice = experiment: Anorectic action: cumulated evaporated milk consumption after oral administration; assay type: in vivo; conditions: for cumulated milk consumption of the treated animals (male): oral dose 50 mg/kg via stomach tube, male NMRI mice after 24 hours feed withdrawal, milk offered 30 minutes after dosing, consumption determined half-hourly for 7 hours; for Reduction of the cumulated milk consumption in % of the control: oral dose 50 mg/kg, male NMRI mice, compared with untreated control animals
Method: The anorectic action was tested on male or female NMRI mice. After withdrawal of feed for 24 hours, the test preparation was administered via a stomach tube. Kept individually and with free access to drinking water, the animals were offered evaporated milk 30 minutes after giving the preparation. The consumption of evaporated milk was determined half-hourly for 7 hours and the general condition of the animals was observed. The measured milk consumption was compared with that of the untreated control animals.

Row | Structure (SMILES) | cumulated milk consumption of the treated animals (male) (NMRI mice) | Reduction of the cumulated milk consumption in % of the control (NMRI mice) [%] | melting point | cumulated milk consumption of the treated animals (male) (NMRI mice; 50 mg/kg) | Reduction of the cumulated milk consumption in % of the control (NMRI mice; 50 mg/kg) [%] | cumulated milk consumption of the treated animals (male) (NMRI mice; Hydrobromide, 50 mg/kg) | Reduction of the cumulated milk consumption in % of the control (NMRI mice; Hydrobromide, 50 mg/kg) [%]
1 | OC12N=C(COc3ccccc3)SC1Cc1cc(Cl)ccc12 (stereo not shown) [Example 1, 6-chloro-2-phenoxymethyl-8,8a-dihydroindeno[1,2-d]thiazol-3a-ol] | 5/0.42 ml | 86 | 121 °C | – | – | – | –
2 | OC12N=C(CSCc3ccccc3)SC1Cc1cc(Cl)ccc12 (stereo not shown) [Example 12, 2-Benzylsulfanylmethyl-6-chloro-8,8a-dihydroindeno [1,2-d]thiazol-3a-ol] | 5/1.36 ml | 71 | 102 to 104 °C and 102 °C | – | – | – | –
3 | CC(C)(C)c1ccc(OCC2=NC3(O)c4ccc(Cl)cc4CC3S2)cc1 (single isomer, unassigned) [Example 3] | – | – | – | 5/0.78 ml | 73 | – | –
4 | Br.OC12N=C(COc3ccc(Cl)cc3Cl)SC1Cc1cc(Cl)ccc12 (stereo not shown) [Example 2] | – | – | – | 5/0.34 ml | 88 | – | –
5 | CC(C)(C)c1ccc(OCC2=NC3(O)c4ccc(Cl)cc4CC3S2)cc1 (single isomer, unassigned) [Example 9, 2-(4-tert-butylphenoxymethyl)-6-chloro-8,8a-dihydroindeno [1,2-d]thiazol-3a-ol] | – | – | 123 °C and 122 to 124 °C | 5/0.26 ml | 93 | – | –
6 | Br.OC12N=C(COc3ccc(Cl)cc3Cl)SC1Cc1cc(Cl)ccc12 (stereo not shown) [Example 6, 6-Chloro-2-(2,4-dichlorophenoxymethyl)-8,8a-dihydroindeno[1,2-d]thiazol-3a-ol Hydrobromide] | – | – | 170 °C | – | – | 5/0.22 ml | 95
